Results as given in PubChem BioAssay (NCI).
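How tested: cells in 96-well plates exposed to compound for 48 hours at five concentrations. GI50 = concentration required for 50% inhibition of growth. The concentration for full growth arrest is given as TGI.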

Columns and labels:
Experiment in all cases: inhibition of tumour cell growth, NCI panel, 48 h
[1] = tested on: SNB-75 CNS
[2] = tested on: U251 CNS
[3] = tested on: 786-0 renal
[4] = tested on: CCRF-CEM leukemia
[5] = tested on: SF-539 CNS
[6] = tested on: CAKI-1 renal
[7] = tested on: A498 renal
[8] = tested on: SF-295 CNS
[9] = tested on: MDA-MB-231 breast
[10] = tested on: SK-OV-3 ovarian

Compound `O.O.[NH-]C1(C(=O)O)CCCC1.[NH-]C1(C(=O)O)CCCC1.[Ni+2]` has a TGI [1] greater than 100 µM, a TGI [2] greater than 100 µM and a GI50 [3] greater than 100 µM. It also gave a TGI [3] greater than 100 µM, a TGI [4] greater than 100 µM and a TGI [5] greater than 100 µM. The TGI [6] was greater than 100 µM, the TGI [7] was greater than 100 µM and the TGI [8] was greater than 100 µM. For the same compound, the GI50 [9] was greater than 100 µM, the TGI [9] was greater than 100 µM and the TGI [10] was greater than 100 µM.

`N#CC1(C#N)C2(c3ccccc3)OC(c3ccccc3)(c3cc4ccccc4cc32)C1(C#N)C#N` was tested, and the TGI [1] was 30.1 µM, the TGI [2] was 35.9 µM and the TGI [3] was 21.3 µM. For the same compound, the TGI [4] was 3.29 µM, the TGI [5] was 29.6 µM and the TGI [6] was 24.1 µM. The TGI [7] was 35.1 µM, the TGI [8] was 29.9 µM and the TGI [9] was 31.9 µM. The TGI [10] was 37.4 µM.

With `N=C1C(c2nc3ccccc3s2)=C(O)CN1c1ccc(F)c(Cl)c1` the GI50 [1] was 13 µM, the TGI [1] was 51.4 µM and the GI50 [2] was 5.76 µM. It also gave a TGI [2] of 23.2 µM, a GI50 [3] of 22.7 µM and a TGI [3] of 57.1 µM. For the same compound, the GI50 [4] was 36.8 µM, the TGI [4] was greater than 100 µM and the GI50 [5] was 8.36 µM. It also gave a TGI [5] of 30.9 µM, a GI50 [6] of 14.8 µM and a TGI [6] of 98.1 µM. The GI50 [7] was 31.2 µM, the TGI [7] was 73.2 µM and the GI50 [8] was 18.8 µM. It also gave a TGI [8] greater than 100 µM, a GI50 [9] of 15.9 µM and a TGI [9] of 47.3 µM. The GI50 [10] was 25.3 µM and the TGI [10] was greater than 100 µM.

For `C=C1C(=O)O[C@@H]2C[C@@H](C)[C@@H]3C=CC(=O)[C@@]3(C)[C@@H](O)[C@H]12`, the TGI [1] was 2.58 µM, the TGI [2] was 2.99 µM and the TGI [3] was 5.4 µM. The TGI [4] was 2.05 µM, the TGI [5] was 9.36 µM and the TGI [6] was 1.2 µM. For the same compound, the TGI [7] was 3.52 µM, the TGI [8] was 6.48 µM and the TGI [9] was 7.35 µM.

In the case of `C=CCOc1cc(NC(=S)c2ccoc2C)ccc1OC`, the TGI [1] is reported as greater than 100 µM, the TGI [2] is reported as greater than 100 µM and the TGI [3] is reported as greater than 100 µM. The TGI [4] was greater than 100 µM, the TGI [5] was greater than 100 µM and the TGI [6] was greater than 100 µM. For the same compound, the TGI [7] was greater than 100 µM, the TGI [8] was greater than 100 µM and the TGI [9] was greater than 100 µM. The TGI [10] was greater than 100 µM.

For `CN(CCO)CC[C@H](CSc1ccccc1)Nc1ccc(S(=O)(=O)NC(=O)c2ccc(N3CCC([C@@H](O)c4ccccc4-c4ccc(Cl)cc4)CC3)cc2)cc1S(=O)(=O)C(F)(F)F`, the GI50 [1] was 3.63 µM, the TGI [1] was 34.2 µM and the GI50 [2] was 2.82 µM. The TGI [2] was 8.88 µM, the GI50 [3] was 3.62 µM and the TGI [3] was 10.1 µM. It also gave a GI50 [4] of 0.0472 µM, a TGI [4] greater than 100 µM and a GI50 [5] of 2.67 µM. The TGI [5] was 8 µM, the TGI [6] was greater than 29.2 µM and the GI50 [7] was 0.0288 µM. For the same compound, the TGI [7] was 0.252 µM, the GI50 [8] was 4.23 µM and the TGI [8] was 25.3 µM. It also gave a GI50 [9] of 0.235 µM, a TGI [9] of 0.936 µM and a GI50 [10] of 4.98 µM. It also gave a TGI [10] of 20.7 µM.

`O=c1[nH]nnc2c1ncn2C1OC(CO)C(O)C1O` (stereo not drawn) showed a GI50 [1] of 0.99 µM, a TGI [1] greater than 100 µM and a GI50 [2] of 41.5 µM. For the same compound, the TGI [2] was greater than 100 µM, the GI50 [3] was 24 µM and the TGI [3] was greater than 100 µM. For the same compound, the GI50 [4] was 3.19 µM, the TGI [4] was greater than 100 µM and the GI50 [5] was 14.5 µM. For the same compound, the TGI [5] was greater than 100 µM, the GI50 [6] was 0.998 µM and the TGI [6] was 32.5 µM. It also gave a GI50 [7] of 61.3 µM, a TGI [7] greater than 100 µM and a GI50 [8] of 1.65 µM. The TGI [8] was 47 µM, the GI50 [9] was 4.91 µM and the TGI [9] was 76.9 µM. It also gave a GI50 [10] of 0.881 µM and a TGI [10] greater than 100 µM.

`CN1CCC2(CC1)ONC1=NCCN12` was tested, and the GI50 [1] was 66.8 µM, the TGI [1] was greater than 100 µM and the GI50 [2] was 29.4 µM. It also gave a TGI [2] greater than 100 µM, a GI50 [3] of 15.4 µM and a TGI [3] of 53.8 µM. It also gave a GI50 [4] of 13.4 µM, a TGI [4] of 42.3 µM and a GI50 [5] of 47.5 µM. For the same compound, the TGI [5] was greater than 100 µM, the GI50 [6] was 30.6 µM and the TGI [6] was 90 µM. It also gave a GI50 [7] of 41.4 µM, a TGI [7] greater than 100 µM and a GI50 [8] of 44.5 µM. It also gave a TGI [8] greater than 100 µM, a GI50 [9] of 46 µM and a TGI [9] greater than 100 µM. The GI50 [10] was 42 µM and the TGI [10] was greater than 100 µM.

`O=C(Oc1cccc(F)c1OC(=O)c1cccc(O)c1)c1cccc(O)c1` was tested, and the GI50 [1] was 35.5 µM, the TGI [1] was greater than 100 µM and the GI50 [2] was 17.8 µM. The TGI [2] was greater than 100 µM, the GI50 [3] was 37 µM and the TGI [3] was greater than 100 µM. For the same compound, the GI50 [5] was 16.9 µM, the TGI [5] was greater than 100 µM and the GI50 [6] was 7.47 µM. For the same compound, the TGI [6] was greater than 100 µM, the GI50 [7] was greater than 100 µM and the TGI [7] was greater than 100 µM. It also gave a GI50 [8] of 36.1 µM, a TGI [8] greater than 100 µM and a GI50 [9] greater than 100 µM. It also gave a TGI [9] greater than 100 µM, a GI50 [10] of 84 µM and a TGI [10] greater than 100 µM.

With `CCN1C(=O)N(CC)C2C1NN=c1s/c(=C\c3cccc(F)c3)c(=O)n12` (stereo not drawn) the GI50 [1] was 0.0745 µM, the TGI [1] was greater than 100 µM and the GI50 [2] was 0.21 µM. For the same compound, the TGI [2] was greater than 100 µM, the GI50 [3] was 0.657 µM and the TGI [3] was greater than 100 µM. The GI50 [4] was 0.181 µM, the TGI [4] was greater than 100 µM and the GI50 [5] was 0.0804 µM. For the same compound, the TGI [5] was 1.05 µM, the GI50 [6] was 0.0711 µM and the TGI [6] was greater than 100 µM. For the same compound, the GI50 [7] was less than 0.0184 µM, the TGI [7] was 0.184 µM and the GI50 [8] was 0.224 µM. It also gave a TGI [8] greater than 100 µM, a GI50 [9] of 0.405 µM and a TGI [9] greater than 100 µM. It also gave a GI50 [10] of 2.59 µM and a TGI [10] greater than 100 µM.

With `CC(C)Cn1cnc2c(SCc3ccc(Cl)cc3Cl)nc(N)nc21` the TGI [1] was greater than 100 µM, the TGI [2] was greater than 100 µM and the TGI [3] was greater than 100 µM. The TGI [5] was 36.5 µM, the TGI [6] was greater than 100 µM and the TGI [7] was 49.5 µM. For the same compound, the TGI [8] was greater than 100 µM, the TGI [9] was greater than 100 µM and the TGI [10] was greater than 100 µM.

Work on `ClCc1cccc2c(CCl)cccc12` yielded a GI50 [1] of 2.1 µM, a TGI [1] of 14.6 µM and a GI50 [2] of 2.89 µM. The TGI [2] was 11.6 µM, the GI50 [3] was 3.93 µM and the TGI [3] was 18.9 µM. The GI50 [4] was 2.31 µM, the TGI [4] was greater than 100 µM and the GI50 [5] was 2.86 µM. For the same compound, the TGI [5] was 11.7 µM, the GI50 [6] was 1.48 µM and the TGI [6] was 4.28 µM. For the same compound, the GI50 [7] was 11 µM, the TGI [7] was 23.7 µM and the GI50 [8] was 5.59 µM. The TGI [8] was 19.5 µM, the GI50 [9] was 13 µM and the TGI [9] was 39 µM. The GI50 [10] was 21.2 µM and the TGI [10] was greater than 100 µM.

`C/C(=N\NC(=S)N1CC2CCC(CC2)C1)c1nccs1` showed a TGI [1] of 16.2 µM, a TGI [2] of 6.43 µM and a TGI [3] of 7.55 µM. The TGI [4] was 0.445 µM, the TGI [5] was 3.57 µM and the TGI [6] was 14.7 µM. The TGI [7] was 14.3 µM, the TGI [8] was 7.81 µM and the TGI [9] was 19.9 µM. For the same compound, the TGI [10] was 11.3 µM.

Work on `CN(/N=C/c1cccc2cccnc12)c1ccc([N+](=O)[O-])cc1[N+](=O)[O-]` yielded a TGI [1] of 25.8 µM, a TGI [2] of 29.1 µM and a TGI [3] of 35.8 µM. It also gave a TGI [4] greater than 100 µM, a TGI [5] of 32.1 µM and a TGI [6] of 64.9 µM. For the same compound, the TGI [7] was 43.7 µM, the TGI [8] was 33 µM and the TGI [9] was 56.8 µM. For the same compound, the TGI [10] was 52.8 µM.

`C[C@]12C[C@H](CCCCCCNCCOC(=O)NCCCc3ccc(N(CCCl)CCCl)cc3)C3=C4CCC(=O)C=C4CCC3C1CC[C@@H]2O` (stereo partly drawn) was tested, and the GI50 [1] was 1.46 µM, the TGI [1] was 2.91 µM and the GI50 [3] was 0.841 µM. The TGI [3] was 3.89 µM, the GI50 [4] was 0.234 µM and the TGI [4] was 0.621 µM. For the same compound, the GI50 [5] was 1.4 µM, the TGI [5] was 3.33 µM and the GI50 [6] was 1.55 µM. For the same compound, the TGI [6] was 3.3 µM, the GI50 [7] was 1.93 µM and the TGI [7] was 3.56 µM. It also gave a GI50 [8] of 2.07 µM, a TGI [8] greater than 100 µM and a GI50 [9] of 2.01 µM. It also gave a TGI [9] of 3.44 µM.
